Results published in PubChem BioAssay AID192 (DTP/NCI, 2004).
Where “and” joins values, the source holds several entries; their conditions need not be identical. Identical values can stand only once. Toxic doses and inconclusive results are not listed.

Tested on: BDF1 mice, B16 melanoma ip, median survival T/C
Assay: NCI In Vivo Anticancer Drug Screen. Data for tumor model B16 Melanoma (intraperitoneal) in B6D2F1 (BDF1) mice
Settings: endpoint: median survival time, higher = longer survival
In short: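 Mice with transplantable tumors; drug vs vehicle groups; endpoint survival or tumor size; value = T/C.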

[1] = dose: 6.25 mg/kg/injection, schedule: Q01DX009 (ip), vehicle: saline with Tween-80
[2] = dose: 6.25 mg/kg/injection, schedule: Q01DX009 (ip), vehicle: saline
[3] = dose: 12.5 mg/kg/injection, schedule: Q01DX009 (ip), vehicle: saline with Tween-80
[4] = dose: 12.5 mg/kg/injection, schedule: Q01DX009 (ip), vehicle: saline
[5] = dose: 25.0 mg/kg/injection, schedule: Q01DX009 (ip), vehicle: saline with Tween-80
[6] = dose: 50.0 mg/kg/injection, schedule: Q01DX009 (ip), vehicle: saline with Tween-80
[7] = dose: 100.0 mg/kg/injection, schedule: Q01DX009 (ip), vehicle: Klucel (hydroxypropylcellulose) (HPC)
[8] = dose: 200.0 mg/kg/injection, schedule: Q01DX009 (ip), vehicle: Klucel (hydroxypropylcellulose) (HPC)
[9] = dose: 400.0 mg/kg/injection, schedule: Q01DX009 (ip), vehicle: Klucel (hydroxypropylcellulose) (HPC)
[10] = dose: 25.0 mg/kg/injection, schedule: Q01DX009 (ip), vehicle: Klucel (hydroxypropylcellulose) (HPC)

Compound: NC(=S)N/N=C\c1nccc2c(N)cccc12
- T/C [1]: 115 % of control and 120 % of control
- T/C [2]: 160 % of control
- T/C [3]: 119 % of control
- T/C [4]: 172 % of control
- T/C (dose: 18.8 mg/kg/injection, schedule: Q04DX003 (ip), vehicle: saline): 155 % of control
- T/C [5]: 156 % of control
- T/C (dose: 25.0 mg/kg/injection, schedule: Q01DX009 (ip), vehicle: saline): 179 % of control
- T/C (dose: 37.5 mg/kg/injection, schedule: Q04DX003 (ip), vehicle: saline): 168 % of control
- T/C [6]: 164 % of control and 175 % of control
- T/C (dose: 50.0 mg/kg/injection, schedule: Q01DX009 (ip), vehicle: saline): 197 % of control
- T/C (dose: 75.0 mg/kg/injection, schedule: Q01DX009 (ip), vehicle: saline with Tween-80): 150 % of control and 153 % of control and 165 % of control
- T/C (dose: 75.0 mg/kg/injection, schedule: Q04DX003 (ip), vehicle: saline): 168 % of control
- T/C (dose: 150.0 mg/kg/injection, schedule: Q04DX003 (ip), vehicle: saline): 179 % of control

Compound: CCN1C(=O)NC(=O)/C(=C/N(CCO)CCO)C1=O
- T/C [7]: 111 % of control
- T/C [8]: 107 % of control
- T/C [9]: 96 % of control

Compound: COC(=O)c1cc2cc3c(c(O)c2c(=O)o1)OC1(Cc2c(O)c4c(c(O)c2O1)C(=O)C(OC)CC4=O)CC3O (stereo not drawn)
- T/C (dose: 3.13 mg/kg/injection, schedule: Q01DX009 (ip), vehicle: saline with Tween-80): 91 % of control
- T/C [1]: 91 % of control and 93 % of control
- T/C [3]: 86 % of control
- T/C [5]: 86 % of control and 88 % of control

Compound: C=CCNC(=S)NCC=C
- T/C [7]: 97 % of control
- T/C [8]: 92 % of control
- T/C [9]: 102 % of control

Compound: Cc1cccc(NC(=O)Nc2ccc(Cl)cc2)c1C
- T/C (dose: 100.0 mg/kg/injection, schedule: Q01DX009 (ip), vehicle: gum acacia): 112 % of control
- T/C (dose: 200.0 mg/kg/injection, schedule: Q01DX009 (ip), vehicle: gum acacia): 107 % of control

Compound: O=C(N[C@H](CO)[C@H](O)c1ccc([N+](=O)[O-])cc1)C(Cl)Cl
- T/C [6]: 100 % of control
- T/C (dose: 100.0 mg/kg/injection, schedule: Q01DX009 (ip), vehicle: saline with Tween-80): 99 % of control
- T/C (dose: 200.0 mg/kg/injection, schedule: Q01DX009 (ip), vehicle: saline with Tween-80): 88 % of control
- T/C (dose: 400.0 mg/kg/injection, schedule: Q01DX009 (ip), vehicle: saline with Tween-80): 88 % of control
- T/C (dose: 800.0 mg/kg/injection, schedule: Q01DX009 (ip), vehicle: saline with Tween-80): 87 % of control

Compound: COC1=C(Br)[C@H](O)[C@](O)(CC#N)C=C1Br
- T/C (dose: 17.5 mg/kg/injection, schedule: Q01DX009 (ip), vehicle: Klucel (hydroxypropylcellulose) (HPC)): 105 % of control
- T/C [10]: 87 % of control
- T/C (dose: 35.0 mg/kg/injection, schedule: Q01DX009 (ip), vehicle: Klucel (hydroxypropylcellulose) (HPC)): 99 % of control
- T/C (dose: 70.0 mg/kg/injection, schedule: Q01DX009 (ip), vehicle: Klucel (hydroxypropylcellulose) (HPC)): 107 % of control

Compound: CN(C)c1ccc2nc3ccc(=[N+](C)C)cc-3sc2c1
- T/C [2]: 86 % of control
- T/C [4]: 93 % of control

Compound: COc1cc2c(cc1OC)/C(=N/N)CCC2
- T/C (dose: 6.25 mg/kg/injection, schedule: Q01DX009 (ip), vehicle: water): 99 % of control
- T/C (dose: 12.5 mg/kg/injection, schedule: Q01DX009 (ip), vehicle: water): 92 % of control
- T/C (dose: 25.0 mg/kg/injection, schedule: Q01DX009 (ip), vehicle: water): 93 % of control
- T/C (dose: 50.0 mg/kg/injection, schedule: Q01DX009 (ip), vehicle: water): 97 % of control

Compound: Cc1nn(-c2ccccc2)c(N)c1C#N
- T/C [10]: 100 % of control
- T/C (dose: 50.0 mg/kg/injection, schedule: Q01DX009 (ip), vehicle: Klucel (hydroxypropylcellulose) (HPC)): 93 % of control
- T/C [7]: 103 % of control

Compound: CCN1/C(=C/C=C/C=C/c2sc3ccccc3[n+]2CC)Sc2ccccc21
- T/C (dose: 0.01 mg/kg/injection, schedule: Q01DX009 (ip), vehicle: saline): 100 % of control
- T/C (dose: 0.02 mg/kg/injection, schedule: Q01DX009 (ip), vehicle: saline): 98 % of control
- T/C (dose: 0.05 mg/kg/injection, schedule: Q01DX009 (ip), vehicle: saline): 93 % of control
- T/C (dose: 0.1 mg/kg/injection, schedule: Q01DX009 (ip), vehicle: saline): 98 % of control
- T/C (dose: 0.2 mg/kg/injection, schedule: Q01DX009 (ip), vehicle: saline): 100 % of control
